This note sets out measurements from patent US20240316047A1, “INHIBITORS OF RNA HELICASE DHX9 AND USES THEREOF” (ACCENT THERAPEUTICS, INC., priority 2022, published 2024).

The experiment addresses Human recombinant DHX9 protein (Homo sapiens (Human), UniProt Q08211). In words: DHX9 ATPase assay (ADP-Glo). The note with it: for IC50: read-out: DHX9 Biochemical Inflection Point. It is filed as biochemical. In general terms: ADP-Glo turns the ADP formed in a reaction into a luminescent signal.

Sequence of Human recombinant DHX9 protein (Q08211 whole entry): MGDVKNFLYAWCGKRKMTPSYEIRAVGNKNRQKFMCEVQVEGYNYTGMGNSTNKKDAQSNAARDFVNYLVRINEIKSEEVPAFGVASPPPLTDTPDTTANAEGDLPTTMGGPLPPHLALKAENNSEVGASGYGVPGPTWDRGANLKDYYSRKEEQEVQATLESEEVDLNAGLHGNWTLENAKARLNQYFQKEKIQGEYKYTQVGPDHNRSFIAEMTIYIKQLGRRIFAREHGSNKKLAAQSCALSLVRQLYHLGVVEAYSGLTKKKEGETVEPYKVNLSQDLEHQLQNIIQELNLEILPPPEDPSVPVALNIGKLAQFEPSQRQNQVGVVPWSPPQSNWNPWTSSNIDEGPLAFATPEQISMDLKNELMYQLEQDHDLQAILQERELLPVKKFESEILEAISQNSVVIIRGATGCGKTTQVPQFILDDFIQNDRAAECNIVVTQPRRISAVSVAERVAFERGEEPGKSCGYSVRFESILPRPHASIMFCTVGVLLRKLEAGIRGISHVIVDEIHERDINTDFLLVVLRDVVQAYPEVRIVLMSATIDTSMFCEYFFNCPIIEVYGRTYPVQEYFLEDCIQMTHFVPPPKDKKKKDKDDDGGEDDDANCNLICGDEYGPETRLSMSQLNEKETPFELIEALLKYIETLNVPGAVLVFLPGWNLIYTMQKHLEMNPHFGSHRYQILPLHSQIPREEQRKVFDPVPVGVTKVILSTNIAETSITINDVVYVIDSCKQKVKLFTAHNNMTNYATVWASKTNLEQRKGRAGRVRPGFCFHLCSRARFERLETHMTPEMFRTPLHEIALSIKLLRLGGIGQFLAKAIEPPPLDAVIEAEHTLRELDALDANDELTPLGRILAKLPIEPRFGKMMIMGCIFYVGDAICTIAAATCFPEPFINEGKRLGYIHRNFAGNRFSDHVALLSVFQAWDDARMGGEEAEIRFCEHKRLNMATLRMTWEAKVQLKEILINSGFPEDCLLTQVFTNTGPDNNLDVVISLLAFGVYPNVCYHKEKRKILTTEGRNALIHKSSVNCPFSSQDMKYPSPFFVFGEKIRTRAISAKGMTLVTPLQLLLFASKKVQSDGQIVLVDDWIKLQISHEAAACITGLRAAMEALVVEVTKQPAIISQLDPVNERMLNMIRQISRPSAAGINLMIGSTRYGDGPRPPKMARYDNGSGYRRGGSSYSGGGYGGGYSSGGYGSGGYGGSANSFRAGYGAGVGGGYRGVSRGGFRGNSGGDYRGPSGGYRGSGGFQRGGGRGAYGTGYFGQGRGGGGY

Take `CS(=O)(=O)Nc1cc(Cl)cc(NC(=O)c2cnn([C@@H]3CCCC[C@H]3O)c2)c1` (relative stereo) [Example 150, N-(3-chloro-5-(methylsulfonamido)phenyl)-1-(trans-2-hydroxycyclohexyl)-1H-pyrazole-4-carboxamide]: the “DHX9 Biochemical Max Inhibition” value was determined as 65.9%.

Take `CS(=O)(=O)Nc1cc(Cl)cc(NC(=O)c2cnn([C@H]3CCC[C@H](O)C3)c2)c1` (single isomer, unassigned) [Example 152a]: the “DHX9 Biochemical Max Inhibition” value amounted to 63.2% and the IC50 is 138 nM.

Take `CS(=O)(=O)Nc1cc(Cl)cc(NC(=O)c2cnn([C@H]3CCC[C@@H](O)C3)c2)c1` (single isomer, unassigned) [Example 152b]: the “DHX9 Biochemical Max Inhibition” value is reported as 69.9% and the IC50 was found to be 126 nM.

As for `CS(=O)(=O)Nc1cc(Cl)cc(NC(=O)c2cnn([C@H]3CCC[C@H]3Oc3ccccc3)c2)c1` (single isomer, unassigned) [Example 259], the “DHX9 Biochemical Max Inhibition” value is 69.2%.

In the case of `CS(=O)(=O)Nc1cc(Cl)cc(NC(=O)c2cnn([C@H]3CCC[C@H]3c3ccccc3)c2)c1` (single isomer, unassigned) [Example 260], the “DHX9 Biochemical Max Inhibition” value is listed as 50%.

For the molecule `CS(=O)(=O)Nc1cc(Cl)cc(NC(=O)c2cnn([C@@H]3CC[C@H]3O)c2)c1` (single isomer, unassigned) [Example 306a], the “DHX9 Biochemical Max Inhibition” value worked out at 70.6% and the IC50 is 127 nM.

For the molecule `CS(=O)(=O)Nc1cc(Cl)cc(NC(=O)c2cnn([C@H]3CC[C@H]3O)c2)c1` (single isomer, unassigned) [Example 306b], the “DHX9 Biochemical Max Inhibition” value is 74.2% and the IC50 amounted to 253 nM.

Regarding `Cc1sc(C(=O)Nc2cc(Cl)cc(NS(C)(=O)=O)c2)cc1-c1ncccc1OC(C)c1cc(F)cc(F)c1` (single isomer, unassigned) [Example 632], the “DHX9 Biochemical Max Inhibition” value is 71.5 and the IC50 was determined as 241 nM.

On to `Cc1sc(C(=O)Nc2cc(Cl)cc(NS(C)(=O)=O)c2)cc1-c1ncccc1OC(C)c1cc(F)cc(F)c1` (single isomer, unassigned) [Example 633], for which the “DHX9 Biochemical Max Inhibition” value was 71.2 and the IC50 was determined as 52.6 nM.

In the case of `CS(=O)(=O)Nc1cc(Cl)cc(NC(=O)c2cn(-c3ccccc3)cn2)c1` [Example 1, N-(3-chloro-5-(methylsulfonamido)phenyl)-1-phenyl-1H-imidazole-4-carboxamide], the “DHX9 Biochemical Max Inhibition” value is 48.3% and the IC50 is 320 nM.

As for `CS(=O)(=O)Nc1cc(F)cc(NC(=O)c2c[nH]c(Br)c2)c1` [Example 2], the “DHX9 Biochemical Max Inhibition” value came out at 64.8% and the IC50 came to 173 nM.

As for `Cc1cc(C(=O)Nc2cc(F)cc(NS(C)(=O)=O)c2)n[nH]1` [Example 3], the “DHX9 Biochemical Max Inhibition” value was found to be 76.4% and the IC50 is 648 nM.

As for `CS(=O)(=O)Nc1cc(F)cc(NC(=O)c2cc(Br)[nH]n2)c1` [Example 4], the “DHX9 Biochemical Max Inhibition” value is 64.1% and the IC50 stood at 4820 nM.

For the molecule `Cc1cc(C(=O)Nc2cc(F)cc(NS(C)(=O)=O)c2)c[nH]1` [Example 5], the “DHX9 Biochemical Max Inhibition” value came to 74.6% and the IC50 turned out to be 215 nM.

Turning to `CS(=O)(=O)Nc1cc(Cl)cc(NC(=O)c2c[nH]c(-c3ccccc3)n2)c1` [Example 6], the “DHX9 Biochemical Max Inhibition” value was found to be 52.5% and the IC50 was 91.7 nM.

In the case of `CS(=O)(=O)Nc1cc(Cl)cc(NC(=O)c2cc(-c3ccccc3)co2)c1` [Example 7], the “DHX9 Biochemical Max Inhibition” value was determined as 46.4% and the IC50 came out at 380 nM.

`CS(=O)(=O)Nc1cc(Cl)cc(NC(=O)c2cc(-c3ccccc3)c[nH]2)c1` [Example 8]: the “DHX9 Biochemical Max Inhibition” value is listed as 54.4% and the IC50 worked out at 395 nM.

For `CS(=O)(=O)Nc1cc(Cl)cc(NC(=O)c2nc(-c3ccccc3)c[nH]2)c1` [Example 9], the “DHX9 Biochemical Max Inhibition” value is 44.5% and the IC50 is 390 nM.
